Reference: patent publication US10426717B2, “Glycol esters of dicaffeoylquinic acid and uses thereof” (PLANT ADVANCED TECHNOLOGIES PAT, priority 2016, dated 2019)

Key:
fibroblasts NHDFs [1] = assay: Induction of a radical stress by the actives, ROS with H2DCFDA probe; type: cell-based, human; conditions: fibroblasts treated with Trolox, normalised to MTS viability, vs 0.1% EtOH control
Procedure: The study has been made on human dermis fibroblasts NHDFs (ATCC, CRL-2522, origin: foreskin) cultured in single layer in DMEM medium (Invitrogen, 31885-049) containing 10% foetal calf serum (Invitrogen, 10270-106) and antibiotics (Penicillin/Streptomycin, Invitrogen, 15140-122). These cells have been maintained in a wet atmosphere at 37° C. containing 5% CO2. In order to validate the hypothesis of a hormetic effect, it has been checked beforehand that the treatment by the actives alone induced a radical stress. The test used is based on the use of the fluorescent probe H2DCFDA (2′-7′dichlorodihydrofluorescein diacetate, Fischer Scientific, #D399). The probe diffusion into the cell enables its acetate group to be cleaved by intracellular esterases. […] The production of free radicals can thus be quantised by the level of fluorescence emitted by the probe oxidised. […] After rinsing, the fluorescence emitted has been quantised (excitation: 485 nm; emission: 520 nm). In order to provide a result representative of the cellular population of each condition, a cellular viability test (MTS) has been made immediately after quantising the fluorescence emitted. The fluorescence values have thus been normalised with respect to the cellular viabilities.

[2] = test system: human dermis fibroblasts NHDFs; assay: Cytotoxicity study of the fractions, cell viability to MTS (Example 3); type: cell-based; conditions: 24 h, 100, 50, 25, 12.5 and 6.25 μM, cytotoxicity threshold 80% viability
Procedure: (§1) The study has been made on human dermis fibroblasts NHDFs (ATCC, CRL-2522, origin: foreskin) at about 40% of their proliferative potential in vitro. These cells have been cultivated in single layer in DMEM medium (Invitrogen, 31885-049) containing 10% foetal calf serum (Invitrogen, 10270-106) and antibiotics (penicillin/streptomycin, Invitrogen, 15140-122). These cells have been maintained in a wet atmosphere at 37° C. containing 5% CO2.
In order to determine the optimum analysis concentration for the fractions, a preliminary experiment has been made on human dermis fibroblasts NHDFs having performed 30.3 population doublings. This study consisted in evaluating cell viability to MTS (3-(4,5-dimethythiazol-2-yl)-5-(3-carboxy-methoxyphenyl)-2-(4-sulphophenyl)-2H-tetrazolium) (Promega, G3581) after 24 h treatment for the 4 fractions, at 5 concentrations (100 μM, 50 μM, 25 μM, 12.5 μM, and 6.25 μM) and in culture triplicates (n=3). The fractions and extract have been prepared in DMSO and DPG70 respectively, the effect of these 2 vehicles has also been tested.
0.08% SDS (sodium dodecyl sulphate) has been used as a cytotoxicity positive control in order to validate the experiment.
In order to determine the optimum study concentration of the 4 fractions, a cytotoxicity study has been made on human dermis fibroblasts NHDFs, based on 5 concentrations after 24 h contact (n=3). The experimental parameters were identical to those used in the following for the study of the effects on the gene expression in terms of culture passages of the cells, confluence and contact time. The effect of the 2 vehicles (DPG70 and DMSO) has been tested in parallel.
The results have been compared to the untreated control and 0.08% SDS has been used as a cytotoxicity positive control in order to validate the experiment. The cytotoxicity threshold has been arbitrarily set to 80% viability.

fibroblasts NHDFs [3] = assay: Real time qPCR of Nrf-2 regulated genes (Example 3); type: cell-based, human; conditions: 24 h, fraction at 50 μM, vs 0.5% DMSO control
Source text: In order to determine which fraction of the extract according to the invention is responsible for this effect, the expression variations of seven target markers (involved in cellular and skin ageing induced by four fractions of an Ipomoea batatas root extract, and by the extract itself, in fibroblasts have been measured by qRT-PCR. A condition corresponding to fibroblasts NHDFs irradiated with UVA (10 J/cm^2) has been analysed in parallel as a positive control for the test.
The seven markers studied (HOMX1, NQO1, HSPA1A, GCLM, GSTP1, UGT1A6 and NOS2) are genes the expression of which is known to be regulated by the transcription factor Nrf-2, playing a major role in the antioxidant defence.
as §1
The extraction of total RNAs has been made using the RNeasy kit (Qiagen, 74106), after 24 h treatment with the fractions or 6 h after UVA irradiation. The cells have been rinsed with PBS and lysed in ad hoc buffer (culture triplicates have been made for each condition). The extraction and purification of the RNAs have been made according to the supplier's instructions. The total RNAs have been preserved at −80° C. afterwards.
The real time qPCR method has been used to quantise the expression of target markers in the different populations of RNAs. The specific TaqMan probes have been synthesised by the company Applied Biosystems.
The target sequences of the genes of interest have been amplified by PCR by using the “TaqMan Gene Expression Assays” (Applied Biosystems). […] The TaqMan probes have been grafted with a fluorophore (FAM) at the 5′ end of the sequence with a 3′ fluorescence quencher. […]

Row | Structure (SMILES) | production of reactive oxygen species (ROS), radical stress (fibroblasts NHDFs [1]) | cytotoxicity (cell viability to MTS) [2] | overexpression of genes of interest (HMOX1, HSPA1A, NQO1, GCLM, GSTP1; FIGS. 7 to 11) (fibroblasts NHDFs [3])
1 | Cc1c(C)c2c(c(C)c1O)CCC(C)(C(=O)O)O2 (stereo not shown) [Trolox] | no radical stress | – | –
2 | O=C(/C=C/c1ccc(O)c(O)c1)OC1CC(O)(C(=O)O)CC(O)C1OC(=O)/C=C/c1ccc(O)c(O)c1 (stereo not shown) [STL967, 4,5-DCQ (Isochlorogenic acid C)] | – | no cytotoxicity | do not induce an overexpression
3 | O=C(/C=C/c1ccc(O)c(O)c1)OC1CC(O)(C(=O)O)CC(O)C1OC(=O)/C=C/c1ccc(O)c(O)c1 (stereo not shown) [STL964, 3,4-DCQ (Isochlorogenic acid B)] | – | no cytotoxicity | do not induce an overexpression
4 | O=C(/C=C/c1ccc(O)c(O)c1)OC1CC(O)(C(=O)O)CC(OC(=O)/C=C/c2ccc(O)c(O)c2)C1O (stereo not shown) [STL965, 3,5-DCQ (Isochlorogenic acid A)] | – | no cytotoxicity | do not induce an overexpression
